Laboratory results from the NIST ThermoML archive (doi:10.1021/acs.jced.8b00699).
Numbers after ± are expanded uncertainties.

Conditions: Liquid, Closed cell (Static) method

| SMILES | vapor or sublimation pressure (238.15 K) | vapor or sublimation pressure (243.15 K) | vapor or sublimation pressure (248.15 K) | vapor or sublimation pressure (253.15 K) | vapor or sublimation pressure (258.15 K) | vapor or sublimation pressure (263.15 K) | vapor or sublimation pressure (268.15 K) | vapor or sublimation pressure (273.15 K) | vapor or sublimation pressure (273.66 K) | vapor or sublimation pressure (278.16 K) | vapor or sublimation pressure (283.15 K) | vapor or sublimation pressure (288.15 K) | vapor or sublimation pressure (293.15 K) | vapor or sublimation pressure (298.15 K) | vapor or sublimation pressure (303.16 K) | vapor or sublimation pressure (308.18 K) | vapor or sublimation pressure (278.15 K) | vapor or sublimation pressure (273.65 K) | vapor or sublimation pressure (303.15 K) | vapor or sublimation pressure (308.15 K) |
| --- | --- | --- | --- | --- | --- | --- | --- | --- | --- | --- | --- | --- | --- | --- | --- | --- | --- | --- | --- | --- |
| CCCCCCC#N [heptanenitrile] | 0.00048 ± 0.00011 kPa | 0.00085 ± 0.00012 kPa | 0.00146 ± 0.00013 kPa | 0.00246 ± 0.00015 kPa | 0.00408 ± 0.00019 kPa | 0.00662 ± 0.00028 kPa | 0.01055 ± 0.00042 kPa | 0.01647 ± 0.00057 kPa | 0.01723 ± 0.00058 kPa | 0.02527 ± 0.00071 kPa | 0.03801 ± 0.00091 kPa | 0.05634 ± 0.0012 kPa | 0.0819 ± 0.0017 kPa | 0.1175 ± 0.0023 kPa | 0.1649 ± 0.0027 kPa | 0.2302 ± 0.0035 kPa | – | – | – | – |
| CCCCCCCCC#N [nonanenitrile] | – | – | – | – | – | – | – | – | 0.00148 ± 0.00013 kPa | – | 0.0037 ± 0.00018 kPa | 0.00585 ± 0.00025 kPa | 0.00907 ± 0.00037 kPa | 0.01387 ± 0.00053 kPa | 0.02079 ± 0.00064 kPa | 0.03074 ± 0.00079 kPa | 0.00231 ± 0.00015 kPa | – | – | – |
| CCCCCCCC#N [octanenitrile] | 0.00012 ± 0.00011 kPa | 0.00021 ± 0.00011 kPa | 0.00037 ± 0.00012 kPa | 0.00064 ± 0.00012 kPa | 0.00108 ± 0.00012 kPa | 0.0018 ± 0.00014 kPa | 0.00295 ± 0.00016 kPa | 0.00476 ± 0.00021 kPa | – | – | 0.01175 ± 0.00047 kPa | 0.01796 ± 0.00059 kPa | 0.02693 ± 0.00073 kPa | 0.0398 ± 0.00094 kPa | – | – | 0.00758 ± 0.00031 kPa | 0.00502 ± 0.00022 kPa | 0.05793 ± 0.0013 kPa | 0.08314 ± 0.0017 kPa |
